{"source": "patent US11452781B2", "about": "“Method of preventing and treating type 1 diabetes, allograft rejection and lung fibrosis (by targeting the ATP/P2X7R axis)” (CHILDREN'S MEDICAL CENTER CORPORATION, priority 2013, dated 2022)", "key": {"C57BL/6 splenocytes [1]": {"test_system": "C57BL/6 splenocytes", "experiment": "Apoptosis of allo-challenged splenocytes (annexin V, FACS)", "details": "oATP, 24 h", "experimental": "To confirm the data obtained in vivo, the effect of targeting P2X7R in vitro was evaluated using alloimmune-relevant assays. Responder splenocytes from C57BL/6 mice were challenged with irradiated stimulator splenocytes from BALB/c mice. The numbers of cells producing IFN-γ and IL-4 were evaluated in an ELISPOT assay in the presence of increasing concentrations of oATP."}, "naïve CD4+ T-cells": {"test_system": "naïve CD4+ T-cells", "experiment": "CFSE T-cell proliferation assay, anti-CD3-Ig/anti-CD28-Ig", "assay_type": "cell-based, mouse", "details": "100 μM oATP, 4 days (96 hours)", "method": "The effect of P2X7R targeting was tested by treatment with oATP during T-cell activation. […] Similarly, in a T-cell proliferation assay, CFSE-labeled naïve CD4^+ T-cells were stimulated for 4 days with 0.5 μg/ml anti-CD3-Ig and anti-CD28-Ig; treatment with 100 μM oATP diminished CD4^+ T-cell proliferation (FIG. 5B, right panel) compared to controls (FIG. 5B, left panel).\nTo address the mechanisms underlying P2X7R targeting mediated inhibition of cardiac transplant rejection, the inventors analyzed the effect of P2X7R targeting on T-cell activation and Th1/Th17 differentiation in vitro. […] The effect of in vitro P2X7R targeting with oATP during CD4+ T-cell activation was tested. […] Second, in a T-cell proliferation assay, carboxyfluorescein diacetate succinimidyl ester-labeled naïve CD4+ T cells were stimulated for 96 hours with 0.5 μg/mL anti-CD3-Ig and anti-CD28-Ig, and treatment with 100 μM oATP diminished CD4+ T cell proliferation in comparison with controls. […] P2X7R targeting with oATP inhibited Th0 conversion into both Th1 and Th17, as assessed by the percentage of IFN-γ+ and IL-17+ cells, respectively. […] In a Th1/Th17 generation assay, pmY-P2X7R CD4+ T cells seemed to display increased differentiation capacity in comparison with pmY-mock CD4+ T cells, as assessed by T-bet and ROR-γ expression."}, "[2]": {"test_system": "splenocytes of cardiac-transplanted mice", "experiment": "Immune profiling of cardiac-transplanted mice (ELISPOT with BALB/c irradiated splenocytes, flow cytometry)", "assay_type": "in vivo, mouse", "method": "To evaluate the effect of P2X7R targeting on the immune system of cardiac-transplanted mice, splenocytes were harvested at days 7 and 100 post-transplantation and were challenged with BALB/c irradiated splenocytes in an ELISPOT assay.\nThe effect of P2X7R targeting in preventing cardiac transplant rejection was tested by using the P2X7R inhibitor oATP. Untreated C57BL/6 mice transplanted with BALB/c hearts (fully mismatched) invariably rejected grafts within 7 days (mean survival time of 7 days). P2X7R targeting with the use of the short-term treatment of oATP ([…] oATP intraperitoneally daily for 14 days) induced long-term cardiac transplant survival (>100 days) in 80% of recipients. To evaluate the effect of P2X7R targeting on the immune system of cardiac-transplanted mice, splenocytes were harvested at days 7 and 100 posttransplantation and were challenged with BALB/c irradiated splenocytes in an enzyme-linked immunosorbent spot (ELISPOT) assay. […] The percentages of CD4+ Teffs and CD8+ Teffs were reduced by in vivo short-term P2X7R targeting in mice at days 7 and 100 posttransplantation in comparison with untreated mice.\nmice adoptively transferred with naïve C57BL/6 splenocytes, and no protection was observed when splenocytes obtained from mice with long-term graft function were coadoptively transferred with naïve splenocytes. Conversely, prolonged graft survival >50 days was observed when splenocytes obtained from cardiac-transplanted mice with long-term graft function were adoptively transferred. […] The immunocompetence of treated mice at day 100 after transplantation was tested."}, "islet allografts": {"test_system": "islet allografts", "experiment": "Islet allograft pathology, RT-PCR transcripts, insulin and glucagon content", "assay_type": "in vivo, mouse", "method": "The presence of […] was then analyzed in the graft infiltrate by quantification, via RT-PCR, by assessing intra-graft Tbet and Rorc mRNA expression."}, "[3]": {"test_system": "B6 recipients of BALB/c lung allografts", "experiment": "Mouse orthotopic lung transplant, BALB/c donor and C57BL/6 recipient", "assay_type": "in vivo", "experimental": "Orthotopic left lung transplants were performed as previously described {Bizargity, #22; Iken, #21}. Briefly, donor mice were anesthetized with ketamine and xylazine, intubated with a 22 G Angiocath, and ventilated with isoflurane/oxygen. Lungs were flushed with ice cold phosphate buffered saline, left lung harvested and cuffs placed in the pulmonary artery, pulmonary vein and bronchus. Recipient mice were anesthetized and ventilated with isoflurane/oxygen, and left lung transplants performed via a thoracotomy and implantation of the three-cuffed hilar structures. Transplanted lungs were harvested 15 to 60-70 days following transplantation.\nAllografts were evaluated 15, 30, and 60-70 days after transplant.\nOutcome Measures—In vivo assessment of transplanted lung function was performed by thoracic CT scan imaging and measuring peak airway pressures (PawP) as previously described {Bizargity, #22}. […] Flow cytometry and enzyme-linked immunosorbent spot assay (ELISPOT) for interferon (IFN)-γ and interleukin (IL)-4 were performed as previously described {Vergani, #25; Vergani, #9}."}, "C57BL/6 splenocytes [4]": {"test_system": "C57BL/6 splenocytes", "experiment": "In vitro alloimmune ELISPOT, C57BL/6 responder splenocytes vs irradiated BALB/c splenocytes", "assay_type": "cell-based, mouse", "excerpt": "The effect of increasing doses of oATP on Th1/Th17 cytokine levels was next tested. A dose-dependent response was evident, in which oATP reduced the number of cells producing Th1 cytokines (IFN-γ and IL-2) and Th17 cytokines (IL-6 and IL-17). Because it has been reported that oATP may affect other P2XRs, the inventors made use of the availability of the selective P2X1R inhibitor NF 449 and of the selective P2X3R inhibitor NF 110. C57BL/6 splenocytes were stimulated with irradiated BALB/c splenocytes, and IFN-γ production was evaluated in the presence of these inhibitors."}, "NOD mice": {"test_system": "NOD mice", "experiment": "Diabetes onset in NOD mice (prevention)", "assay_type": "in vivo, mouse", "method": "Untreated NOD mice invariably developed diabetes by 15-20 weeks of age (FIGS. 5A-5E). […] Rapamycin (0.1 mg/kg for 10 days) treatment was again synergistic with oATP treatment, inducing a further delay in the onset of diabetes (FIG. 7) with 70% of mice protected from diabetes at 25 weeks, while rapamycin treatment alone was ineffective in delaying diabetes in NOD mice (FIG. 7). This group of experiments confirmed that the ATP/P2X7R axis is indeed relevant to allo- and autoimmune responses in vivo and that P2X7R targeting can be viewed as a novel strategy to curb both responses.\nConsequently, NOD mice were treated with oATP."}}, "note": "Entries after “also recorded” stand apart in the source; their conditions may differ.", "data": [{"substance": "periodate-oxidized ATP [oATP]", "values": [{"measurement": "percentage of apoptotic cells (annexin V+)", "setting": "C57BL/6 splenocytes [1]", "value": "no increase"}, {"measurement": "CD4+ T-cell proliferation", "setting": "naïve CD4+ T-cells", "value": "diminished; also recorded: suppressed"}, {"measurement": "percentage of Tregs", "setting": "[2]; day 7", "value": "No differences"}, {"measurement": "percentage of Tregs", "setting": "[2]; day 100", "value": "an increase"}, {"measurement": "percentages of CD4+ Teffs and CD8+ Teffs", "setting": "[2]; days 7 and 100 vs untreated", "value": "reduced"}, {"measurement": "IFN-γ-producing cells after ovalbumin immunization (immunocompetence)", "setting": "[2]; oATP-treated mice at day 100 vs naïve mice", "value": "no differences"}, {"measurement": "number of IL-4-producing cells (ELISPOT)", "setting": "[2]; oATP-treated vs untreated, day 7", "value": "increased"}, {"measurement": "number of IFN-γ-producing cells (ELISPOT)", "setting": "[2]; oATP-treated vs untreated, day 7 (and day 100)", "value": "Reduced; also recorded: fewer"}, {"measurement": "percentage of Th17 cells (CD4+IL17+)", "setting": "[2]; vs untreated, days 7 and 100", "value": "similarly reduced; also recorded: fewer"}, {"measurement": "islet structure, insulin and glucagon staining", "setting": "islet allografts; day 14 (oATP), long-term (oATP+rapamycin)", "value": "preserved insulin staining; also recorded: maintained"}, {"measurement": "reduction of Tbet mRNA expression vs untreated", "setting": "islet allografts; day 14, n=3", "value": "threefold decrease"}, {"measurement": "lung function (PawP)", "setting": "[3]; 15 to ≥60 days", "value": "significantly improved"}, {"measurement": "percentage of Th17 cells", "setting": "[3]; 15 days", "value": "not a significant difference"}, {"measurement": "total number of Th17 cells", "setting": "[3]; 15 days", "value": "reduction; also recorded: fewer"}, {"measurement": "total number of Treg", "setting": "[3]; 15 days", "value": "reduction; also recorded: fewer"}, {"measurement": "BAL ATP levels", "setting": "[3]; 15 days post transplant", "value": "significant reduction"}, {"measurement": "acute rejection, comparison of treatments (FIG. 17)", "setting": "[3]; 30 days, CSA 10 mg/kg/day, CTLA-4Ig 250 μg, oATP 250 μg/day, Rap 0.1 mg/kg/day", "value": "better outcomes than cyclosporine alone; also recorded: more robust as compared to CSA"}, {"measurement": "thoracic CT imaging of left lung allografts", "setting": "[3]; all three time points", "value": "little infiltrate"}, {"measurement": "number of leucocytes and lymphocytes isolated from lung allografts", "setting": "[3]; day 15, flow cytometry, vs untreated", "value": "nearly half; also recorded: significantly fewer"}, {"measurement": "effector memory T cells (CD44highCD62Llow)", "setting": "[3]; lung allograft T cells", "value": "inhibitory effect; also recorded: significant reduction"}, {"measurement": "IFN-γ and IL-4 response of isolated T cells (ELISPOT)", "setting": "[3]; most pronounced after 15 days", "value": "impaired"}, {"measurement": "CD4 and CD8 T cells within lung allografts", "setting": "[3]; mouse, in vivo", "value": "decrease"}, {"measurement": "amount of inflammation (score 0-4) / histology", "setting": "[3]; mouse, in vivo", "value": "remarkable reduction; also recorded: limited disease"}, {"measurement": "percentage of CD8 Tcm (CD8+CD44+CD62L+CCR7+)", "setting": "[3]; mouse, in vivo", "value": "increased"}, {"measurement": "percentage of Treg", "setting": "[3]; mouse, in vivo", "value": "not a remarkable difference"}, {"measurement": "lung allograft survival / function", "setting": "[3]; oATP daily IP", "value": "> 60", "unit": "days"}, {"measurement": "lung function (PawP) after rescue dosing", "setting": "[3]; oATP days 15-30", "value": "improved; also recorded: significant improvement"}, {"measurement": "IL-4 production", "setting": "C57BL/6 splenocytes [4]; increasing concentrations of oATP", "value": "dose-dependent increase"}, {"measurement": "number of cells producing Th1 (IFN-γ, IL-2) and Th17 (IL-6, IL-17) cytokines", "setting": "C57BL/6 splenocytes [4]; increasing doses, dose-dependent", "value": "reduced"}, {"measurement": "delay of diabetes onset", "setting": "NOD mice; 4-week-old NOD mice, daily i.p. for 30 days (early prevention)", "value": "delays diabetes onset"}, {"measurement": "delay of diabetes onset", "setting": "NOD mice; 10-week-old NOD mice (late prevention)", "value": "delay"}, {"measurement": "mice protected from diabetes at 25 weeks of age", "setting": "NOD mice; 10-week-old NOD mice, oATP 250 μg i.p. daily 14 days, Rapamycin 0.1 mg/kg 10 days", "value": 50, "unit": "%"}]}]}
